This assay relates to Calf thymus DNA. The assay can be described thus: Ratio of binding constant of S-enantiomer and R-enantiomer towards sonicated calf thymus DNA. It counts as nucleic-acid assay. Particulars: Bos taurus.
For `CCC(N)COc1nc(-c2cccs2)c(C)c(-c2cccs2)n1` (configuration not stated), the Ratio was 1.6. The value for `CC(N)COc1nc(-c2cccs2)cc(-c2cccs2)n1` (configuration not stated) was 1.2; that for `Cc1c(-c2cccs2)nc(OCC(C)N)nc1-c1cccs1` (configuration not stated) was 1.5. On to `Cc1c(-c2cccs2)nc(OCCN)nc1-c1cccs1`, for which the Ratio was 2.2. As for `Cc1c(-c2cccs2)nc(OCC2CCCN2)nc1-c1cccs1` (configuration not stated), the Ratio was found to be 1.8. Regarding `Cc1cnc(OCC(N)C(C)C)nc1-c1cccs1` (configuration not stated), the Ratio was 1.6. Then `CC(C)C(N)COc1nc(-c2cccs2)cc(-c2cccs2)n1` (configuration not stated), with 2.2; and `NCCOc1nc(-c2cccs2)cc(-c2cccs2)n1`, with 2.7; and `Cc1c(-c2cccs2)nc(OCC(N)C(C)C)nc1-c1cccs1` (configuration not stated), with 1.5. Then `Cc1cnc(OCC2CCCN2)nc1-c1cccs1` (configuration not stated), with 1.4; and `CCC(N)COc1nc(-c2cccs2)cc(-c2cccs2)n1` (configuration not stated), with 1.4; and `c1csc(-c2cc(-c3cccs3)nc(OCC3CCCN3)n2)c1` (configuration not stated), with 2.4.

For the origin of these results see ChEMBL document CHEMBL1145265, “Chiral discrimination in binding of enantiomers of 2-(aminoalkoxy)-substituted 4-(2-thienyl)pyrimidines and 4,6-bis(2-thienyl)pyrimidines with duplex DNA” (Bioorg Med Chem Lett, 2005).
